Measured values as given in patent US8252774B2, “5-azaindole bisphosphonates” (Isis Innovation Ltd., priority 2008, dated 2012).

What was measured:
[1] = HAP affinity: chromatographic profiling on hydroxyapatite column (FPLC); format: physicochemical; conditions: phosphate buffer gradient 1 mM up to 1000 mM, pH 6.8, determined in triplicate, longer retention = higher mineral affinity
[2] = target: T1, human farnesyl pyrophosphate synthase (FPPS) (Homo sapiens, UniProt P14324); assay: FPPS inhibition in vitro; format: biochemical; conditions: recombinant human FPPS
T1 construct: made in house
T1 sequence (P14324 67-419 limits assumed): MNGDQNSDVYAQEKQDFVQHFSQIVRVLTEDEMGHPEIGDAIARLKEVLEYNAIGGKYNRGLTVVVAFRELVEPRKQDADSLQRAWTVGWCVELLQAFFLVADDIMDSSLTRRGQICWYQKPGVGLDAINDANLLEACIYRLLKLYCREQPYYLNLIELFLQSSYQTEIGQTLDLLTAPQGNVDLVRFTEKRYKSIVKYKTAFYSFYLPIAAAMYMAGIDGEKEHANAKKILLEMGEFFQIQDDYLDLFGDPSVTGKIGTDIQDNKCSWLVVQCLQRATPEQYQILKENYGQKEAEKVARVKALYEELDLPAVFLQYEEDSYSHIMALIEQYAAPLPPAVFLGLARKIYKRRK

| Structure (SMILES) | Retention time [1] | IC50 ([2]; after pre-incubation) | Ki ([2]; final inhibition constant) |
| --- | --- | --- | --- |
| O=P(O)(O)C(O)(Cc1cnc2ccccn12)P(=O)(O)O [Minodronate] | 10.33 min |  |  |
| O=P(O)(O)C(O)(Cn1ccnc1)P(=O)(O)O [Zoledronate] | 12.53 min |  |  |
| O=P(O)(O)C(O)(Cc1cccnc1)P(=O)(O)O [Risedronate] | 9.97 min |  |  |
| O=P(O)(O)C(Cc1c[nH]c2ccncc12)P(=O)(O)O [5-azaindol-3-yl-ethyl-bisphosphonic acid] | 6.3 min | 6.6 nM | 0.6 nM |
